Laboratory results taken from PMC8067632, “Assessment and Development of the Antifungal Agent Caspofungin for Aerosolized Pulmonary Delivery” (Pharmaceutics, 2021).
Values after ≈ are worked out from the molar mass of the structure shown.

What was measured:
Format in all cases: cell-based
[1] = test system: Aspergillus fumigatus ATCC 13073; assay: Broth microdilution MEC; conditions: CLSI broth microdilution, microscopy, duplicate
Method: (§1) Antifungal potency of the test article(s) was measured using the in vitro broth microdilution assay under test conditions described by the Clinical and Laboratory Standards Institute. Minimum Inhibitory Concentration (MIC) is defined as the lowest concentration of an agent that causes a specified reduction in visible growth of the microorganism. Minimum Effective Concentration (MEC) is defined as the lowest concentration of an agent that leads to the growth of small, rounded, compact hyphal forms, as compared to the hyphal growth typically seen in the growth control well. MIC values were determined for 9 Candida spp., and MEC values were determined for filamentous fungus species (Aspergillus fumigatus and Trichophyton rubrum). Details of the test article preparations and methodologies are described in Supplementary Material S1.
(§2) Following incubation, the test plates were visually examined and wells were scored for growth or complete growth inhibition to define the MIC values. Microscopy examination was used to determine the MEC values. Each test substance was evaluated in duplicate and the results are the duplicate test values. Vehicle-control and an active reference agent were used as blank and positive controls, respectively. […]
(§3) S1. In Vitro Testing, Test Article Preparations
(§4) The 5 mg/mL stock solution was prepared as the following. The refrigerated vial was equilibrated to room temperature. Test vial was reconstituted aseptically with 10.5 mL 0.9% NaCl. The powder was dissolved completely, mixing until a clear solution was ob-tained. The final concentration was 5.0 mg/mL of caspofungin freebase. The reconstituted solution was stable for 1 hr at room temperature. The 5 mg/mL stock solution was then […]
(§5) The refrigerated vial was equilibrated to room temperature. The powder was dis-solved completely, mixing until a clear solution was obtained. Test vial was reconstituted aseptically with 1.8 mL 0.9% NaCl. The white to off-white powder was dissolved com-pletely, mixing gently until a clear solution was obtained. The final concentration was 5.0 mg/mL of caspofungin freebase. The reconstituted solution was used within 1 hr at room temperature. The 5 mg/mL stock solution was then diluted with 0.9% NaCl to prepare the […]
(§6) 1.3. Caspofungin Diacetate
(§7) The 5 mg/mL API stock solution was prepared as the following. The refrigerated vial was equilibrated to room temperature. Test vial was filled aseptically with 1.8 mL 0.9%
(§8) NaCl. The powder was dissolved completely, mixing until a clear solution was obtained.
(§9) The final concentration was 5.0 mg/mL of caspofungin freebase. The reconstituted solu-tion was used within 1 hr at room temperature. The 5 mg/mL stock solution was then […]
(§10) g compound, corresponding to 1.2 mg active compound with a correction factor of 2.40 was added 0.375 mL of water for injection to generate the 3.2 mg/mL working stock solution for testing. The 3.2 mg/mL working stock solution was 2-fold diluted seri-ally in 0.9% NaCl to prepare a total of eleven 50-fold stock solutions, concentrations rang-ing from 3.2 to 0.003 mg/mL. A 4 μL aliquot of each dilution was added to 196 μL of broth medium seeded with the organism suspension in wells of a 96 well plate (fungal cell count: 1 x 10^3 to 1 x 10^4 colony forming units per mL). The final volume was 200 μL in each […]

[2] = test system: Trichophyton rubrum ATCC 10218; assay: Broth microdilution MEC; conditions: CLSI broth microdilution, microscopy, duplicate
Method: as §1, §2, §3, §4, §5, §6, §7, §8, §9, §10

[3] = test system: Aspergillus fumigatus ATCC204305; assay: Broth microdilution MEC; conditions: CLSI broth microdilution, microscopy, duplicate
Method: as §1, §2, §3, §4, §5, §6, §7, §8, §9, §10

[4] = test system: Candida albicans ATCC90028 + 50%human serum; assay: microbe, parasite or virus in culture; conditions: Candida albicans, ATCC90028, CLSI broth microdilution, duplicate, read-out: MIC
Method: as §1, §2, §3, §4, §5, §6, §7, §8, §9, §10

Candida krusei ATCC 6258 = assay: microbe, parasite or virus in culture; conditions: Pichia kudriavzevii, ATCC6258; CLSI broth microdilution, duplicate; read-out: MIC
Method: as §1, §2, §3, §4, §5, §6, §7, §8, §9, §10

[5] = test system: Candida albicans Azole-R (20183.073); assay: microbe, parasite or virus in culture; conditions: Candida albicans; CLSI broth microdilution, azole-resistant strain, duplicate; read-out: MIC
Method: as §1, §2, §3, §4, §5, §6, §7, §8, §9, §10

[6] = test system: Candida albicans Azole-R (20186.025); assay: microbe, parasite or virus in culture; conditions: Candida albicans
Method: as §1, §2, §3, §4, §5, §6, §7, §8, §9, §10

[7] = test system: Candida albicans ATCC90028; assay: microbe, parasite or virus in culture; conditions: Candida albicans, ATCC90028; CLSI broth microdilution, visual, duplicate; read-out: MIC
Method: as §1, §2, §3, §4, §5, §6, §7, §8, §9, §10

[8] = test system: Candida tropicalis ATCC 200956; assay: microbe, parasite or virus in culture; conditions: Candida tropicalis, ATCC200956; CLSI broth microdilution, duplicate; read-out: MIC
Method: as §1, §2, §3, §4, §5, §6, §7, §8, §9, §10

[9] = test system: Candida glabrata ATCC 36583; assay: microbe, parasite or virus in culture; conditions: Nakaseomyces glabratus, ATCC36583; CLSI broth microdilution, duplicate; read-out: MIC
Method: as §1, §2, §3, §4, §5, §6, §7, §8, §9, §10

[10] = test system: Candida albicans ATCC44858; assay: microbe, parasite or virus in culture; conditions: Candida albicans, ATCC44858; CLSI broth microdilution, visual, duplicate; read-out: MIC
Method: as §1, §2, §3, §4, §5, §6, §7, §8, §9, §10

[11] = test system: Candida parapsilosis ATCC 22019; assay: microbe, parasite or virus in culture; conditions: Lodderomyces parapsilosis, ATCC22019; CLSI broth microdilution, duplicate; read-out: MIC
Method: as §1, §2, §3, §4, §5, §6, §7, §8, §9, §10

C[C@@H]1[C@H](O)[C@@H](C)/C=C/C=C/C=C/C=C/C=C/C=C/C=C/[C@H](O[C@@H]2O[C@H](C)[C@@H](O)[C@H](N)[C@@H]2O)C[C@@H]2O[C@](O)(C[C@@H](O)C[C@@H](O)[C@H](O)CC[C@@H](O)C[C@@H](O)CC(=O)O[C@H]1C)C[C@H](O)[C@H]2C(=O)O [Amphotericin B]
MEC [1]: 0.25 µg/mL | MEC [2]: 0.125 µg/mL | MEC [3]: 0.5 µg/mL | MIC [4]: 0.25 µg/mL (≈ 0.271 µM) | MIC (Candida krusei ATCC 6258): 0.25 µg/mL (≈ 0.271 µM) | MIC [5]: 0.125 µg/mL (≈ 0.135 µM) | MIC [6]: 0.25 µg/mL (≈ 0.271 µM) | MIC [7]: 0.125 µg/mL (≈ 0.135 µM) | MIC [8]: 1 µg/mL (≈ 1.08 µM) | MIC [9]: 0.125 µg/mL (≈ 0.135 µM) | MIC [10]: 0.125 µg/mL (≈ 0.135 µM) | MIC [11]: 0.25 µg/mL (≈ 0.271 µM)
